Test results as given in patent US20070021434A1, “NON-NUCLEOSIDE ANTI-HEPACIVIRUS AGENTS AND USES THEREOF” (Migenix Inc., priority 2005, published 2007).
Like-named read-outs stand apart in the source and are kept apart here.

Legend:
[1] = test system: Huh-7 cells, sub-genomic genotype 1a HCV replicon H/SG-Neo; test: Inhibition of HCV replication in cell culture, genotype 1a replicon; type: cell-based, hepatitis C virus
Method: (§1) Test compounds were solubilized at 30 mM in 100% tissue culture grade DMSO (Sigma, Inc.). Aliquots of test compounds sufficient for one daily treatment were made in individual tubes and all material was stored at −20° C. On each day of treatment, daily aliquots of the test compounds were suspended in culture medium at room temperature and immediately added to the cell cultures. Compounds were added to dividing cultures once daily for three days at concentrations ranging from about 30 μM to about 0.0003 μM. Media was changed with each addition of compound. The assays were started when cell cultures were at about 30-50% confluence, and the cells reached confluence during the last day of treatment. The assays included untreated control cultures (six total), and triplicate cultures treated with α-interferon and ribavirin as positive antiviral and toxicity controls.
(§2) Intracellular HCV RNA levels and cytotoxicity were assessed in triplicate 24 hours after the last compound dose.

[2] = test system: Huh-7 cells, genotype 1b HCV replicon; test: Inhibition of HCV replication in cell culture, genotype 1b replicon; type: cell-based, hepatitis C virus; settings: for EC50: Huh-7, genotype 1b replicon, intracellular HCV RNA 24 h after 3 daily doses; for Selectivity Index (CC50/EC50): genotype 1b replicon, CC50 by neutral red uptake
Method: as §1, §2

HCV RdRp (NS5B) = HCV RdRp (NS5B) (UniProt P26663); type: biochemical, hepatitis C virus
[3] = Hepatitis C virus, Huh-7, 24 h, read-out: EC50

Chain of HCV RdRp (NS5B) (P26663 whole entry, looked up): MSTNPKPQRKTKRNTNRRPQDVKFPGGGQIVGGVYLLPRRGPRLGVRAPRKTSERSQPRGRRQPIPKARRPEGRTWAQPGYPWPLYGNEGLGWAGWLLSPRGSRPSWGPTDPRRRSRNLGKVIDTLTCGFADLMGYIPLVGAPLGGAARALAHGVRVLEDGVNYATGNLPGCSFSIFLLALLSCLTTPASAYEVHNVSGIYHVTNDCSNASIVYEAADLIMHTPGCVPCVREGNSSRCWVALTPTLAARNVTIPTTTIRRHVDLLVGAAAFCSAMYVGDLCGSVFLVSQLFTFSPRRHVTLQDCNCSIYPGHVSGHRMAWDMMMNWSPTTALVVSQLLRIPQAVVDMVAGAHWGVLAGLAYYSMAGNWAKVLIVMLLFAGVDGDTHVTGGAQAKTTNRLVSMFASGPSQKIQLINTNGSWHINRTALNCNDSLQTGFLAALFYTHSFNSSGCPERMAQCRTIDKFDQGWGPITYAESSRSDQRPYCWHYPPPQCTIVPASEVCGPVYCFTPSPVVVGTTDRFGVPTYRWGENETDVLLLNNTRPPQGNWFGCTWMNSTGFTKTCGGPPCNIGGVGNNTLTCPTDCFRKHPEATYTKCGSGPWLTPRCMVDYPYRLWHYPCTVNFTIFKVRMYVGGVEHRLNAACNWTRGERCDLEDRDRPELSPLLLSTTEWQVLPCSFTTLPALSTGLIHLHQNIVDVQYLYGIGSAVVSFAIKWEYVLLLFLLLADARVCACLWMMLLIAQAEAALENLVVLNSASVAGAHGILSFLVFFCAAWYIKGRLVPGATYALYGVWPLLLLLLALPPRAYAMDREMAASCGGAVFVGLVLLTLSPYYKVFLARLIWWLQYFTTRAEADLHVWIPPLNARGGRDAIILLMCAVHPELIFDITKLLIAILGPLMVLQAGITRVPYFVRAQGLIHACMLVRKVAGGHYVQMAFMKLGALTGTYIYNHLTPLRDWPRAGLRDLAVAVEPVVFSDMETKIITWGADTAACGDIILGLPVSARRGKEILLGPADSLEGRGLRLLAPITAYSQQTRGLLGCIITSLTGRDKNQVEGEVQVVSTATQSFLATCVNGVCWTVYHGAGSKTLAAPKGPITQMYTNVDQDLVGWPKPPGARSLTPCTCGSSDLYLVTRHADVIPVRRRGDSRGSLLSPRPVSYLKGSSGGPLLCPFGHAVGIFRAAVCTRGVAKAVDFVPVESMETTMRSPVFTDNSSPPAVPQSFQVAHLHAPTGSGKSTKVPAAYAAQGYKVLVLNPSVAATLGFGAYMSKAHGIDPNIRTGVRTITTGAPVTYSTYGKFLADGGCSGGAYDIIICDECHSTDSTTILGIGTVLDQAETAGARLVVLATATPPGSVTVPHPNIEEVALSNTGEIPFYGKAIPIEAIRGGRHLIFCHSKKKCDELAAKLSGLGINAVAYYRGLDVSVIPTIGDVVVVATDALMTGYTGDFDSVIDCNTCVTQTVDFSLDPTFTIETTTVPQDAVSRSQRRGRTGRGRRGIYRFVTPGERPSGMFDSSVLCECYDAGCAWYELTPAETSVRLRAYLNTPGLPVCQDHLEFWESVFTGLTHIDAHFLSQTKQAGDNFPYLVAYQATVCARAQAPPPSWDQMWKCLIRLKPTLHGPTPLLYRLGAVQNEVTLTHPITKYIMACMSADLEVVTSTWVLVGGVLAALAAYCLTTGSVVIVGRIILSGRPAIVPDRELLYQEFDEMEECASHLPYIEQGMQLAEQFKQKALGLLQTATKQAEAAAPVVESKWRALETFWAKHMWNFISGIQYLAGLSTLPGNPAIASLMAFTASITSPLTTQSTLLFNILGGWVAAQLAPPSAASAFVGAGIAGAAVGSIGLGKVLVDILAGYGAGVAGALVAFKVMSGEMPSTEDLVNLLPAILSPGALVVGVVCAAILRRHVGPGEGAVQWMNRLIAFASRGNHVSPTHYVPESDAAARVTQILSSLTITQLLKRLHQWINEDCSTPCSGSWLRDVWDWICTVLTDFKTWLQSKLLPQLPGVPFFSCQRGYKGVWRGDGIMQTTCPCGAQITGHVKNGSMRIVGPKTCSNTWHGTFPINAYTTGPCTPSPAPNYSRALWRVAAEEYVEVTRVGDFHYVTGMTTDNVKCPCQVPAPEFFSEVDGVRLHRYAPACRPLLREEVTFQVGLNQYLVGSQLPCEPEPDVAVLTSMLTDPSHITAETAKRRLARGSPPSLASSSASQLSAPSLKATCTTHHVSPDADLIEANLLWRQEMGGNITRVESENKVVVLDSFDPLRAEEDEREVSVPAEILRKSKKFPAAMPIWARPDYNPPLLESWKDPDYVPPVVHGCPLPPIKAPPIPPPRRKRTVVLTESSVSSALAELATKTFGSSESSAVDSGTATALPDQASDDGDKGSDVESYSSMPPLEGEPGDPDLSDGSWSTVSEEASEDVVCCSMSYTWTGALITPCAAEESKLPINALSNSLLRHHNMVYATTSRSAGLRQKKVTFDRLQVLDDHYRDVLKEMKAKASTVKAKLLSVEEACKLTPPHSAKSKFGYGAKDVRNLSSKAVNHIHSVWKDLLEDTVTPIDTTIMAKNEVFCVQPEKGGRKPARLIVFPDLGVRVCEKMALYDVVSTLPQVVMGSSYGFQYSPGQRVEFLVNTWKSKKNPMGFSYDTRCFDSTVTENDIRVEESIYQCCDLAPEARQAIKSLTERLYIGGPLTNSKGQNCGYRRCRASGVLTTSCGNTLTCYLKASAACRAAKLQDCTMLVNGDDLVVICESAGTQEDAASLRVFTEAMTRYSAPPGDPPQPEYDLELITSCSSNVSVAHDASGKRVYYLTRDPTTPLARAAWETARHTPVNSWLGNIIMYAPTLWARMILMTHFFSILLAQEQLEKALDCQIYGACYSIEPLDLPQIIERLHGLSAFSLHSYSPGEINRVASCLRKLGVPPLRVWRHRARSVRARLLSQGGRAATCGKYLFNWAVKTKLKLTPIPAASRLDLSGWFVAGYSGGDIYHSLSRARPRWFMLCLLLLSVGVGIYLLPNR

| SMILES | EC50 ([1]; Hepatitis C virus, Huh-7, genotype 1a replicon, intracellular HCV RNA 24 h after 3 daily doses) | Selectivity Index (CC50/EC50) ([1]; genotype 1a replicon, CC50 by neutral red uptake) | EC50 [2, 3] | Selectivity Index (CC50/EC50) [2] | IC50 (HCV RdRp (NS5B)) | EC50 ([2]; Hepatitis C virus, Huh-7, 24 h) | EC50 [2] | EC50 ([2]; read-out: EC50) |
| --- | --- | --- | --- | --- | --- | --- | --- | --- |
| Cc1cc2cc(NC(=O)[C@H](CCCCN)NC(=O)Nc3ccc(OCc4ccccc4)cc3)ccc2[nH]1 [Compound 206, (S)-6-AMINO-2-[3-(4-BENZYLOXY-PHENYL)-UREIDO]-HEXANOIC ACID (2-METHYL-1H-INDOL-5-YL)-AMIDE] | > 2 µM | <20 | > 2 µM | <20 | 10 to 50 µM | – | – | – |
| NCCCC[C@H](NC(=O)Nc1ccc(-c2ccccc2)cc1)C(=O)Nc1ccc(C2CCCCC2)cc1 [Compound 119, (S)-6-AMINO-2-(3-BIPHENYL-4-YL-UREIDO)-HEXANOIC ACID (4-CYCLOHEXYL-PHENYL)-AMIDE] | – | – | > 2 µM | <20 | < 10 µM | – | – | – |
| Cc1ccc(NC(=O)C(CNC(=O)CN)NC(=O)Nc2ccc(OCc3ccccc3)cc2)cc1 [Compound 268, (S)-3-(2-AMINO-ACETYLAMINO)-2-[3-(4-BENZYLOXY-PHENYL)-UREIDO]-N-P-TOLYL-PROPIONAMIDE] | – | – | > 2 µM | <20 | 10 to 50 µM | – | – | – |
| Cc1cc2cc(NC(=O)[C@H](CCNC(=O)CN)NC(=O)Nc3ccc4c(c3)Cc3ccccc3-4)ccc2[nH]1 [Compound 240, (S)-4-(2-AMINO-ACETYLAMINO)-2-[3-(9H-FLUOREN-2-YL)-UREIDO]-N-(2-METHYL-1H-INDOL-5-YL)-BUTYRAMIDE] | – | – | > 2 µM | <20 | 10 to 50 µM | – | – | – |
| Cc1ccc(NC(=O)[C@H](CCCCN)NC(=O)CNc2ccccc2Oc2ccccc2)cc1 [Compound 366, (S)-6-AMINO-2-[2-(2-PHENOXY-PHENYLAMINO)-ACETYLAMINO]-HEXANOIC ACID P-TOLYLAMIDE] | – | – | > 2 µM | <20 | < 10 µM | – | – | – |
| NCCCC[C@H](NC(=O)OCC1c2ccccc2-c2ccccc21)C(=O)Nc1ccc(CN)cc1 [Compound 228, (S)-[5-AMINO-1-(4-AMINOMETHYL-PHENYLCARBAMOYL)-PENTYL]-CARBAMIC ACID 9H-FLUOREN-9-YLMETHYL ESTER] | – | – | – | 20 to 100 | < 10 µM | 0.5 µM | – | – |
| NCCCC[C@@H](NC(=O)Nc1ccc2c(c1)Cc1ccccc1-2)C(=O)Nc1ccc(C2CCCCC2)cc1 [Compound 137, (R)-6-AMINO-2-[3-(9H-FLUOREN-2-YL)-UREIDO]-HEXANOIC ACID (4-CYCLOHEXYL-PHENYL)-AMIDE] | – | – | < 0.5 µM | 20 to 100 | < 10 µM | – | – | – |
| NCCCCC[C@H](NC(=O)Nc1ccc(OCc2ccccc2)cc1)C(=O)Nc1ccc(C2CCCCC2)cc1 [Compound 121, (S)-7-AMINO-2-[3-(4-BENZYLOXY-PHENYL)-UREIDO]-HEPTANOIC ACID (4-CYCLOHEXYL-PHENYL)-AMIDE] | – | – | < 0.5 µM | <20 | < 10 µM | – | – | – |
| NCCCCN(CC(=O)Nc1ccc(C2CCCCC2)cc1)C(=O)Nc1ccc(C=Cc2ccccc2)cc1 [Compound 324, 2-[1-(4-AMINO-BUTYL)-3-(4-STYRYL-PHENYL)-UREIDO]-N-(4-CYCLOHEXYL-PHENYL)-ACETAMIDE] | – | – | > 2 µM | <20 | 10 to 50 µM | – | – | – |
| Cc1ccc(NC(=O)[C@@H](CCCCN)NC(=O)Nc2ccc3c(c2)Cc2ccccc2-3)cc1 [Compound 173, (R)-6-AMINO-2-[3-(9H-FLUOREN-2-YL)-UREIDO]-HEXANOIC ACID P-TOLYLAMIDE] | – | – | – | <20 | < 10 µM | – | 2 to 0.5 μM | – |
| Cc1ccc(NC(=O)C[C@H](CCCCN)NC(=O)Nc2ccc(OCc3ccccc3)cc2)cc1 [Compound 246, (S)-7-AMINO-3-[3-(4-BENZYLOXY-PHENYL)-UREIDO]-HEPTANOIC ACID P-TOLYLAMIDE] | – | – | > 2 µM | <20 | 10 to 50 µM | – | – | – |
| Cc1ccc(NC(=O)C(Cc2ccc(CN)cc2)NC(=O)Nc2ccc(-c3ccccc3)cc2)cc1 [Compound 145, (S)-3-(4-AMINOMETHYL-PHENYL)-2-(3-BIPHENYL-4-YL-UREIDO)-N-P-TOLYL-PROPIONAMIDE] | – | – | > 2 µM | <20 | < 10 µM | – | – | – |
| Cc1ccc(NC(=O)[C@H](CCCCN)NC(=O)Nc2ccc3c(c2)Cc2ccccc2-3)cc1 [Compound 125, (S)-6-AMINO-2-[3-(9H-FLUOREN-2-YL)-UREIDO]-HEXANOIC ACID P-TOLYLAMIDE] | – | – | – | <20 | < 10 µM | – | – | > 2 µM |
| Cc1ccc(NC(=O)C(CCCCN)NC(=O)Nc2ccc(-c3nc4ccccc4o3)cc2)cc1 [Compound 270, (S)-6-AMINO-2-[3-(4-BENZOOXAZOL-2-YL-PHENYL)-UREIDO]-HEXANOIC ACID P-TOLYLAMIDE] | – | – | > 2 µM | <20 | 10 to 50 µM | – | – | – |
| COC(=O)c1ccc(COc2ccc(NC(=O)NC(CCCCN)C(=O)Nc3ccc(C)cc3)cc2)cc1 [Compound 199, (S)-4-{4-13-(5-AMINO-1-P-TOLYLCARBAMOYL-PENTYL)-UREIDO]-PHENOXYMETHYL}-BENZOIC ACID METHYL ESTER] | – | – | 0.5 to 2 µM | 20 to 100 | 10 to 50 µM | – | – | – |
| CC1CCC(NC(=O)[C@H](CNC(=O)CN)NC(=O)Nc2ccc(OCc3ccccc3)cc2)CC1 (stereo partly drawn) [Compound 306, (S)-3-(2-AMINO-ACETYLAMINO)-2-[3-(4-BENZYLOXY-PHENYL)-UREIDO]-N-(4-METHYL-CYCLOHEXYL)-PROPIONAMIDE] | – | – | > 2 µM | <20 | 10 to 50 µM | – | – | – |
| O=C(CC1CNCCN1C(=O)Nc1ccc(OCc2ccccc2)cc1)Nc1ccc(C2CCCCC2)cc1 (centres unmarked) [Compound 163, 2-[(4-CYCLOHEXYL-PHENYLCARBAMOYL)-METHYL]-PIPERAZINE-1-CARBOXYLIC ACID (4-BENZYLOXY-PHENYL)-AMIDE] | – | – | < 0.5 µM | <20 | 10 to 50 µM | – | – | – |
| Cc1cc2cc(NC(=O)[C@H](CCCCN)NC(=O)Nc3ccc(-c4ccccc4)cc3)ccc2[nH]1 [Compound 94, (S)-6-AMINO-2-(3-BIPHENYL-4-YL-UREIDO)-HEXANOIC ACID (2-METHYL-1H-INDOL-5-YL)-AMIDE] | – | – | > 2 µM | <20 | < 10 µM | – | – | – |
| Cc1cc2cc(NC(=O)[C@H](CCCCN)NC(=O)Nc3ccc4c(c3)Cc3ccccc3-4)ccc2[nH]1 [Compound 207, (S)-6-AMINO-2-[3-(9H-FLUOREN-2-YL)-UREIDO]-HEXANOIC ACID (2-METHYL-1H-INDOL-5-YL)-AMIDE] | – | – | > 2 µM | <20 | < 10 µM | – | – | – |
| NCCCC[C@@H](NC(=O)Nc1ccc(OCc2ccccc2)cc1)C(=O)Nc1ccc(C2CCCCC2)cc1 [Compound 166, (R)-6-AMINO-2-[3-(4-BENZYLOXY-PHENYL)-UREIDO]-HEXANOIC ACID (4-CYCLOHEXYL-PHENYL)-AMIDE] | – | – | > 2 µM | <20 | < 10 µM | – | – | – |
| NCCCCC[C@H](NC(=O)NCc1ccccc1)C(=O)Nc1ccc(C2CCCCC2)cc1 [Compound 120, (S)-7-AMINO-2-(3-BENZYL-UREIDO)-HEPTANOIC ACID (4-CYCLOHEXYL-PHENYL)-AMIDE] | – | – | > 2 µM | <20 | < 10 µM | – | – | – |
| NCCCC[C@H](NC(=O)Nc1ccc(-c2ccccc2)cc1)C(=O)Nc1ccc(CN(C(=O)c2ccco2)C2CCCCC2)cc1 [Compound 26, (S)-FURAN-2-CARBOXYLIC ACID {4-[6-AMINO-2-(3-BIPHENYL-4-YL-UREIDO)-HEXANOYLAMINO]-BENZYL}-CYCLOHEXYL-AMIDE] | – | – | > 2 µM | <20 | < 10 µM | – | – | – |
| Cc1ccc(NC(=O)C(CCCCN)NC(=O)Nc2cccc(-c3ccccc3)c2)cc1 [Compound 127, (S)-6-AMINO-2-(3-BIPHENYL-3-YL-UREIDO)-HEXANOIC ACID P-TOLYLAMIDE] | – | – | > 2 µM | <20 | 10 to 50 µM | – | – | – |
| NCCCC[C@@H](NC(=O)Nc1ccc(-c2ccccc2)cc1)C(=O)Nc1ccc(C2CCCCC2)cc1 [Compound 142, (R)-6-AMINO-2-(3-BIPHENYL-4-YL-UREIDO)-HEXANOIC ACID (4-CYCLOHEXYL-PHENYL)-AMIDE] | – | – | < 0.5 µM | <20 | < 10 µM | – | – | – |
| Cc1cc2cc(NC(=O)[C@H](CCNC(=O)CN)NC(=O)OCC3c4ccccc4-c4ccccc43)ccc2[nH]1 [Compound 237, (S)-[3-(2-AMINO-ACETYLAMINO)-1-(2-METHYL-1H-INDOL-5-YLCARBAMOYL)-PROPYL]-CARBAMIC ACID 9H-FLUOREN-9-YLMETHYL ESTER] | – | – | > 2 µM | <20 | < 10 µM | – | – | – |
| Cc1ccc(NC(=O)[C@H](CCCCN)NC(=O)CNc2ccc(Oc3ccccc3)cc2)cc1 [Compound 368, (S)-6-AMINO-2-[2-(4-PHENOXY-PHENYLAMINO)-ACETYLAMINO]-HEXANOIC ACID P-TOLYLAMIDE] | – | – | 0.5 to 2 µM | <20 | < 10 µM | – | – | – |
